In this test the target is T1, ERα (Homo sapiens, UniProt P03372).
T1 construct: expressed in transfected cells; host or cells: HeLa (HELN-ERα)
T1 sequence (P03372 1-595): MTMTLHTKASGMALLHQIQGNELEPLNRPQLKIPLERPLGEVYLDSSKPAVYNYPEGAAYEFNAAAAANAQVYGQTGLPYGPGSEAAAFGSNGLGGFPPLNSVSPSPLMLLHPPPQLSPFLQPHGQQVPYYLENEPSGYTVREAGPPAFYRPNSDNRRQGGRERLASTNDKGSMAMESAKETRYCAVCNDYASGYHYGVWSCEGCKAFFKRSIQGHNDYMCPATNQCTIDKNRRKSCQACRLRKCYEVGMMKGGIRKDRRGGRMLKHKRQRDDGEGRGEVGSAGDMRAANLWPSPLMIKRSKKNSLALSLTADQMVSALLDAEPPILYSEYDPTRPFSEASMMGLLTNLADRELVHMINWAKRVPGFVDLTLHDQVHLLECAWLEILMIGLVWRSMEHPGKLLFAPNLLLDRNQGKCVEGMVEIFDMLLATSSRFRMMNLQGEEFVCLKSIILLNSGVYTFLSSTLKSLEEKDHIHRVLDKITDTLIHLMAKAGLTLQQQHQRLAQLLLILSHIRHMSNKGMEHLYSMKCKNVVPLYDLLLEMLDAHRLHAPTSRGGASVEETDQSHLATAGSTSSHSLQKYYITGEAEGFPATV
Put plainly: Estrogenicity reporter gene bioassay (luciferase activity) in HELN-ERα cells. In kind it is cell-based. The text has this: Briefly, the transactivation bioassay (Reporter gene assay) used are based on the use of breast and uterine cancer cell lines transfected with different native or modified hormone receptors. The resulting cell lines further contain a reporter gene regulated by estrogens through the estrogen response element, the globin promoter and the luciferase gene.
HELN-ERα and HELN-ERβ cell lines were obtained by means of transfecting the HeLa uterine cancer cell line. In a first phase, said cells were transfected with an estrogen sensitive response element and then with the estrogen receptor alpha or beta (ERα or ERβ). The selection of clones resistant to geneticin and puromycin was performed using a concentration of 1 mg/mL and 0.5 mg/mL, respectively. The maintenance medium as well as the experimental medium of these 2 cell lines is DMEM F12 without phenol red supplemented with 6% of FBS (lacking of estrogens), 1% of penicillin / streptomycin, 1 mg/mL of geneticin and 0.5 µg/mL of puromycin.
The cells were seeded at a density of 5x10^4 cells per well in white opaque 96 well plates in 150 µL of experimental medium. After 8 hours, the compounds to be assayed (p-nitrolophine and estradiol) were prepared (concentrated 4x) in the same medium and were added to each well (50 µl). The cells were incubated for 16 hours at 37°C. At the end of the incubation, the medium was removed and replaced with fresh medium containing […] luciferin [at that concentration, luciferin diffuses into cell producing a luminescent signal which is stable after 5 minutes and for at least 2 hours]. The plates were then introduced in the luminometer to measure the luminescence for 2 seconds. A YicroBeta Trilux luminometer (EGG Wallac) apparatus was used to detect luciferase activity.
The assays were preformed in quadruple for each concentration (0.01-10 µM) in at least three independent experiments. […] The values of luciferase activity obtained were analyzed using the one-way ANOVA statistic test. The differences were considered significant when P was less than […] (P < 0.05).
For orientation: In a reporter assay the amount or activity of a reporter protein is the signal.

The values that follow come from EP2444396A1, “PHOTOPROTECTIVE COMPOSITION” (Apoteknos Para La Piel, S.L., priority 2009, dated 2010).

In turn, `O=[N+]([O-])c1ccc(-c2nc(-c3ccccc3)c(-c3ccccc3)[nH]2)cc1` [p-nitrolophine, 2-(4-nitrophenyl)-4,5-diphenyl-1H-imidazole] yielded an activity at 0.01 µM of 11.1 ± 0.9%, an activity at 0.03 µM of 11.7 ± 0.9%, an activity at 0.1 µM of 10.7 ± 1.1% and an activity at 0.3 µM of 11.3 ± 1.5%. The activity at 1 µM turned out to be 11.1 ± 1.1%, the activity at 3 µM came to 11.2 ± 1.4% and the activity at 10 µM turned out to be 11.6 ± 1.5%. Further, for the setting “HELN-ERα line, conclusion in words”, the estrogenicity result is recorded as “not estrogenic”.
